Assay results published in publication PMC11213733, “Computational approaches identify a transcriptomic fingerprint of drug-induced structural cardiotoxicity” (Cell Biology and Toxicology, 2024).
Where a name gives a salt, the structure may show the parent alone.

Key:
[1] = ref FDA label, cited from earlier work
cardiac microtissues [2] = assay: Transcriptomic profiling (mRNA-seq) and DESeq2 differential gene expression analysis in cardiac microtissues; conditions: absolute log2(Fold-Change) > 1, FDR p ≤ 0.05
cardiac microtissues [3] = assay: Ingenuity Pathway Analysis over-representation of differentially expressed genes (activation Z-score); type: cell-based, human; conditions: 48hr high; Group 1

CC(=O)[C@]1(O)Cc2c(O)c3c(c(O)c2[C@@H](O[C@H]2C[C@H](N)[C@H](O)[C@H](C)O2)C1)C(=O)c1ccccc1C3=O [Idarubicin HCl]
Structural cardiotoxin? ([1]; FDA label references heart failure or a decrease in left ventricular ejection fraction): Y | Functional cardiotoxin? ([1]; compound annotation): Y | number of significant differentially expressed genes, 6hr high (cardiac microtissues [2]; 6 hr, high concentration): 24 | number of significant differentially expressed genes, 6hr low (cardiac microtissues [2]; 6 hr, low concentration): 12 | number of significant differentially expressed genes, 48hr high (cardiac microtissues [2]; 48 hr, high concentration): 2838 | number of significant differentially expressed genes, 48hr low (cardiac microtissues [2]; 48 hr, low concentration): 578 | number of significant differentially expressed genes, 72hr high (cardiac microtissues [2]; 72 hr, high concentration): 1616 | number of significant differentially expressed genes, 72hr low (cardiac microtissues [2]; 72 hr, low concentration): 864 | activation Z-score: Acute Phase Response Signaling (cardiac microtissues [3]): -0.816 | activation Z-score: Apelin Liver Signaling Pathway (cardiac microtissues [3]): -0.707 | activation Z-score: BER (Base Excision Repair) Pathway (cardiac microtissues [3]): -2.333 | activation Z-score: Cardiac Hypertrophy Signaling (cardiac microtissues [3]): -1.732 | activation Z-score: Cardiomyocyte Differentiation via BMP Receptors (cardiac microtissues [3]): -2.236 | activation Z-score: Cell Cycle Control of Chromosomal Replication (cardiac microtissues [3]): -3.71 | activation Z-score: Cell Cycle Regulation by BTG Family Proteins (cardiac microtissues [3]): -1.342 | activation Z-score: Cyclins and Cell Cycle Regulation (cardiac microtissues [3]): -1.941 | activation Z-score: D-myo-inositol-5-phosphate Metabolism (cardiac microtissues [3]): 0.258 | activation Z-score: DNA Methylation and Transcriptional Repression Signaling (cardiac microtissues [3]): -0.535 | activation Z-score: Estrogen-mediated S-phase Entry (cardiac microtissues [3]): -1.897 | activation Z-score: Factors Promoting Cardiogenesis in Vertebrates (cardiac microtissues [3]): -2.117 | activation Z-score: G-Protein Coupled Receptor Signaling (cardiac microtissues [3]): 0.53 | activation Z-score: GP6 Signaling Pathway (cardiac microtissues [3]): 0.378 | activation Z-score: Glioma Invasiveness Signaling (cardiac microtissues [3]): -0.632 | activation Z-score: HIF1Î± Signaling (cardiac microtissues [3]): 0.209 | activation Z-score: HMGB1 Signaling (cardiac microtissues [3]): -0.577 | activation Z-score: Hepatic Fibrosis Signaling Pathway (cardiac microtissues [3]): -1.508 | activation Z-score: ILK Signaling (cardiac microtissues [3]): -3 | activation Z-score: Insulin Secretion Signaling Pathway (cardiac microtissues [3]): -0.192 | activation Z-score: Integrin Signaling (cardiac microtissues [3]): -1.877 | activation Z-score: Kinetochore Metaphase Signaling Pathway (cardiac microtissues [3]): -2.556 | activation Z-score: Mismatch Repair in Eukaryotes (cardiac microtissues [3]): -2.333 | activation Z-score: Mitotic Roles of Polo-Like Kinase (cardiac microtissues [3]): -1.604 | activation Z-score: NER (Nucleotide Excision Repair, Enhanced Pathway) (cardiac microtissues [3]): -2.183 | activation Z-score: Nitric Oxide Signaling in the Cardiovascular System (cardiac microtissues [3]): 0.775 | activation Z-score: Protein Kinase A Signaling (cardiac microtissues [3]): 0.302 | activation Z-score: Pyridoxal 5'-phosphate Salvage Pathway (cardiac microtissues [3]): -1 | activation Z-score: RHOGDI Signaling (cardiac microtissues [3]): 0.816 | activation Z-score: Regulation Of The Epithelial Mesenchymal Transition By Growth Factors Pathway (cardiac microtissues [3]): -1.147 | activation Z-score: Role of NFAT in Cardiac Hypertrophy (cardiac microtissues [3]): -1.512 | activation Z-score: SPINK1 General Cancer Pathway (cardiac microtissues [3]): 2.333 | activation Z-score: Salvage Pathways of Pyrimidine Ribonucleotides (cardiac microtissues [3]): -1 | activation Z-score: Senescence Pathway (cardiac microtissues [3]): 1.768 | activation Z-score: Sphingosine-1-phosphate Signaling (cardiac microtissues [3]): 0 | activation Z-score: Superpathway of Inositol Phosphate Compounds (cardiac microtissues [3]): 0.894 | activation Z-score: Thrombin Signaling (cardiac microtissues [3]): -0.471 | activation Z-score: White Adipose Tissue Browning Pathway (cardiac microtissues [3]): -2.449 | activation Z-score: Wound Healing Signaling Pathway (cardiac microtissues [3]): -0.164 | activation Z-score: cAMP-mediated signaling (cardiac microtissues [3]): 0
